The structures appear in SMILES notation.

Sequence of PDHK1 (Q15118 29-436): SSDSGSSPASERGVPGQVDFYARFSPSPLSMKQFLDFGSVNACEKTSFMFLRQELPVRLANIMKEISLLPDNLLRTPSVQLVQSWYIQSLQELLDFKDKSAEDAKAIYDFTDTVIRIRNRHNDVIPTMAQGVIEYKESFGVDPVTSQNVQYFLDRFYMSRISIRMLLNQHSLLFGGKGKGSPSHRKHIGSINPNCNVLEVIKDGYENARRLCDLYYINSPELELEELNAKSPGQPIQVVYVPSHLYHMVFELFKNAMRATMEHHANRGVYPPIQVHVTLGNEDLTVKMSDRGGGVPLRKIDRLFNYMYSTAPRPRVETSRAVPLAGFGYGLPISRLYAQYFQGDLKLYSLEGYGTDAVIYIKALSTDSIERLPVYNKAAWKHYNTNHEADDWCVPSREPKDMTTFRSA

The first assay has as its target PDHK1 (Homo sapiens (Human), UniProt Q15118). Nature of the assay: PDHK1 enzymatic assay (AlphaScreen, phosphorylation of PDHE1 S293). The class given is biochemical. The settings on record: 1 nM PDHK1, 25 nM PDHE1, 20 μM ATP, 30° C. for 45 minutes. From the text: Pyruvate dehydrogenase complex (PDHc) is an enzyme that catalyzes the reaction of pyruvate and a lipoamide to give the acetylated dihydrolipoamide and carbon dioxide. PDHc has three subunits E1, E2 and E3. E1 has 3 serine phosphorylation sites S293, S232, S300. If E1 was phosphorylated, PDH will be inactivated. PDHK can phosphorylate PDH protein (also named PDHE1) in PDH complex (PDC) to inactivate it.
Background: Bead proximity is the source of the signal in Alpha formats.
In the case of `CCNc1cc(F)cc2c1NC(=O)C2(C)N1CCCC(NC(=O)C2CC3(C2)CN(C#N)C3)C1` (stereo in doubt) [Example 37, 2-cyano-N-[(3R)-1-[7-(ethylamino)-5-fluoro-3-methyl-2-oxo-indolin-3-yl]-3-piperidyl]-2-azaspiro[3.3]heptane-6-carboxamide], the “Enzymatic IC50 against PDHK1” value came to 0.039 µg/mL.

For `CCNc1cc(F)cc2c1NC(=O)C2(C)N1CCC[C@@H](Oc2ccc(O)c(C=O)c2)C1` (stereo partly drawn) [Example 2, 5-[[(3R)-1-[7-(ethylamino)-5-fluoro-3-methyl-2-oxo-indolin-3-yl]-3-piperidyl]oxy]-2-hydroxy-benzaldehyde], the “Enzymatic IC50 against PDHK1” value was found to be 0.015 µg/mL.

As for `CCNc1cc(F)cc2c1NC(=O)[C@]2(C)N1CCC[C@@H](Oc2ccc(S(=O)(=O)F)cc2)C1` [Example 3A, 4-[[(3R)-1-[(3R)-7-(ethylamino)-5-fluoro-3-methyl-2-oxo-indolin-3-yl]-3-piperidyl]oxy]benzenesulfonyl fluoride], the “Enzymatic IC50 against PDHK1” value is 0.036 µg/mL.

With `CCNc1cc(F)cc2c1NC(=O)C2(C)N1CCC[C@@H](Cc2ccc(C(=O)O)cc2)C1` (stereo partly drawn) [Example 5, 4-[[(3S)-1-[7-(ethylamino)-5-fluoro-3-methyl-2-oxo-indolin-3-yl]-3-piperidyl]methyl]benzoic acid], the “Enzymatic IC50 against PDHK1” value came out at 0.046 µg/mL.

As for `CCNc1cc(F)cc2c1NC(=O)C2(C)N1CCC[C@@H](Cc2ccc(C(N)=O)cc2)C1` (stereo partly drawn) [Example 6, 4-[[(3S)-1-[7-(ethylamino)-5-fluoro-3-methyl-2-oxo-indolin-3-yl]-3-piperidyl]methyl]benzamide], the “Enzymatic IC50 against PDHK1” value was 0.143 µg/mL.

As to `CCNc1cc(F)cc2c1NC(=O)C2(C)N1CCC[C@@H](Nc2ccc(C#N)cc2)C1` (stereo partly drawn) [Example 8, 4-[[(3R)-1-[7-(ethylamino)-5-fluoro-3-methyl-2-oxo-indolin-3-yl]-3-piperidyl]amino]benzonitrile], the “Enzymatic IC50 against PDHK1” value was 0.022 µg/mL.

Regarding `CCNc1cc(F)cc2c1NC(=O)C2(C)N1CCC[C@@H](Nc2ccc(C#N)c(O)c2)C1` (stereo partly drawn) [Example 9, 4-[[(3R)-1-[7-(ethylamino)-5-fluoro-3-methyl-2-oxo-indolin-3-yl]-3-piperidyl]amino]-2-hydroxy-benzonitrile], the “Enzymatic IC50 against PDHK1” value came out at 0.015 µg/mL.

`CCNc1cc(F)cc2c1NC(=O)C2(C)N1CCC[C@H](Nc2ccc(C(=O)O)nc2)C1` (stereo partly drawn) [Example 10, 5-[[(3S)-1-[7-(ethylamino)-5-fluoro-3-methyl-2-oxo-indolin-3-yl]-3-piperidyl]amino]pyridine-2-carboxylic acid]: the “Enzymatic IC50 against PDHK1” value came to 0.059 µg/mL.

As for `CCNc1cc(F)cc2c1NC(=O)C2(C)N1CCC[C@@H](Nc2ccc(C(=O)O)nc2)C1` (stereo partly drawn) [Example 11, 5-[[(3R)-1-[7-(ethylamino)-5-fluoro-3-methyl-2-oxo-indolin-3-yl]-3-piperidyl]amino]pyridine-2-carboxylic acid], the “Enzymatic IC50 against PDHK1” value was 0.020 µg/mL.

As for `CCNc1cc(F)cc2c1NC(=O)C2(C)N1CCC[C@@H](Nc2ccc(C(N)=O)nc2)C1` (stereo partly drawn) [Example 12, 5-[[(3R)-1-[7-(ethylamino)-5-fluoro-3-methyl-2-oxo-indolin-3-yl]-3-piperidyl]amino]pyridine-2-carboxamide], the “Enzymatic IC50 against PDHK1” value was determined as 0.062 µg/mL.

For the compound `CCNc1cc(F)cc2c1NC(=O)C2(C)N1CCC[C@@H](Nc2ccc(C#N)cn2)C1` (stereo partly drawn) [Example 14, 6-[[(3R)-1-[7-(ethylamino)-5-fluoro-3-methyl-2-oxo-indolin-3-yl]-3-piperidyl]amino]pyridine-3-carbonitrile], the “Enzymatic IC50 against PDHK1” value was 0.007 µg/mL.

For `CCNc1cc(F)cc2c1NC(=O)C2(C)N1CCC[C@@H](Nc2cnc(C#N)cn2)C1` (stereo partly drawn) [Example 15, 5-[[(3R)-1-[7-(ethylamino)-5-fluoro-3-methyl-2-oxo-indolin-3-yl]-3-piperidyl]amino]pyrazine-2-carbonitrile], the “Enzymatic IC50 against PDHK1” value stood at 0.060 µg/mL.

Take `CCNc1cc(F)cc2c1NC(=O)C2(C)N1CCC[C@@H](Nc2ccc(C#N)nn2)C1` (stereo partly drawn) [Example 16, 6-[[(3R)-1-[7-(ethylamino)-5-fluoro-3-methyl-2-oxo-indolin-3-yl]-3-piperidyl]amino]pyridazine-3-carbonitrile]: the “Enzymatic IC50 against PDHK1” value was 0.047 µg/mL.

Regarding `CCNc1cc(F)cc2c1NC(=O)C2(C)N1CCC[C@@H](Nc2cnc(C#N)nc2)C1` (stereo partly drawn) [Example 17, 5-[[(3R)-1-[7-(ethylamino)-5-fluoro-3-methyl-2-oxo-indolin-3-yl]-3-piperidyl]amino]pyrimidine-2-carbonitrile], the “Enzymatic IC50 against PDHK1” value was 0.012 µg/mL.

Consider `CCNc1cc(F)cc2c1NC(=O)C2(C)N1CCC[C@@H](Nc2ccc(CO)nc2)C1` (stereo partly drawn) [Example 18, 7-(ethylamino)-5-fluoro-3-[(3R)-3-[[6-(hydroxymethyl)-3-pyridyl]amino]-1-piperidyl]-3-methyl-indolin-2-one], for which the “Enzymatic IC50 against PDHK1” value came out at 0.059 µg/mL.

On to `CCNc1cc(F)cc2c1NC(=O)C2(C)N1CCC[C@@H](Nc2ccc(C(=O)CO)cc2)C1` (stereo partly drawn) [Example 19, 7-(ethylamino)-5-fluoro-3-[(3R)-3-[4-(2-hydroxyacetyl)anilino]-1-piperidyl]-3-methyl-indolin-2-one], for which the “Enzymatic IC50 against PDHK1” value stood at 0.016 µg/mL.

`CCNc1cc(F)cc2c1NC(=O)C2(C)N1CCC[C@@H](Nc2ccc(S(C)(=O)=O)nc2)C1` (stereo partly drawn) [Example 20, 7-(ethylamino)-5-fluoro-3-methyl-3-[(3R)-3-[(6-methylsulfonyl-3-pyridyl)amino]-1-piperidyl]indolin-2-one]: the “Enzymatic IC50 against PDHK1” value is 0.038 µg/mL.

On to `CCNc1cc(F)cc2c1NC(=O)C2(C)N1CCC[C@@H](Nc2ccc(O)nc2)C1` (stereo partly drawn) [Example 21, 7-(ethylamino)-5-fluoro-3-[(3R)-3-[(6-hydroxy-3-pyridyl)amino]-1-piperidyl]-3-methyl-indolin-2-one], for which the “Enzymatic IC50 against PDHK1” value is 0.037 µg/mL.

As for `CCNc1cc(F)cc2c1NC(=O)C2(C)N1CCC[C@@H](Nc2cnc(C#N)c(Cl)c2)C1` (stereo partly drawn) [Example 22, 3-chloro-5-[[(3R)-1-[7-(ethylamino)-5-fluoro-3-methyl-2-oxo-indolin-3-yl]-3-piperidyl]amino]pyridine-2-carbonitrile], the “Enzymatic IC50 against PDHK1” value came to 0.024 µg/mL.

Regarding `CCNc1cc(F)cc2c1NC(=O)C2(C)N1CCC[C@@](C)(Nc2ccc(C#N)nc2)C1` (stereo partly drawn) [Example 23, 5-[[(3R)-1-[7-(ethylamino)-5-fluoro-3-methyl-2-oxo-indolin-3-yl]-3-methyl-3-piperidyl]amino]pyridine-2-carbonitrile], the “Enzymatic IC50 against PDHK1” value came out at 0.049 µg/mL.

For `CCNc1cc(F)cc2c1NC(=O)C2(C)N1CCC[C@@H](N(C)c2ccc(C(N)=O)nc2)C1` (stereo partly drawn) [Example 24, 5-[[(3R)-1-[7-(ethylamino)-5-fluoro-3-methyl-2-oxo-indolin-3-yl]-3-piperidyl]-methyl-amino]pyridine-2-carboxamide], the “Enzymatic IC50 against PDHK1” value was determined as 0.016 µg/mL.

For `CCNc1cc(F)cc2c1NC(=O)C2(CC)N1CCC[C@@H](N(C(C)=O)c2ccc(C#N)nc2)C1` (stereo partly drawn) [Example 25, N-(6-cyano-3-pyridyl)-N-[(3R)-1-[3-ethyl-7-(ethylamino)-5-fluoro-2-oxo-indolin-3-yl]-3-piperidyl]acetamide], the “Enzymatic IC50 against PDHK1” value was determined as 0.142 µg/mL.

On to `CCNc1cc(F)cc2c1NC(=O)C2(CC)N1CCC[C@@H](N(C(N)=O)c2ccc(C#N)nc2)C1` (stereo partly drawn) [Example 26, 1-(6-cyano-3-pyridyl)-1-[(3R)-1-[3-ethyl-7-(ethylamino)-5-fluoro-2-oxo-indolin-3-yl]-3-piperidyl]urea], for which the “Enzymatic IC50 against PDHK1” value came to 0.067 µg/mL.

Regarding `CCNc1cc(F)cc2c1NC(=O)C2(C)N1CCC[C@@H](Nc2cccc(S(=O)(=O)F)c2)C1` (stereo partly drawn) [Example 27, 3-[[(3R)-1-[7-(ethylamino)-5-fluoro-3-methyl-2-oxo-indolin-3-yl]-3-piperidyl]amino]benzenesulfonyl fluoride], the “Enzymatic IC50 against PDHK1” value amounted to 0.086 µg/mL.

As to `CCNc1cc(F)cc2c1NC(=O)C2(C)N1CCC[C@@H](Nc2ccc(S(=O)(=O)F)c(OC)c2)C1` (stereo partly drawn) [Example 28, 4-[[(3R)-1-[7-(ethylamino)-5-fluoro-3-methyl-2-oxo-indolin-3-yl]-3-piperidyl]amino]-2-methoxy-benzenesulfonyl fluoride], the “Enzymatic IC50 against PDHK1” value turned out to be 0.032 µg/mL.

As for `CCNc1cc(F)cc2c1NC(=O)C2(C)N1CCC[C@@H](Nc2ccc(S(=O)(=O)F)cn2)C1` (stereo partly drawn) [Example 29, 6-[[(3R)-1-[7-(ethylamino)-5-fluoro-3-methyl-2-oxo-indolin-3-yl]-3-piperidyl]amino]pyridine-3-sulfonyl fluoride], the “Enzymatic IC50 against PDHK1” value was determined as 0.035 µg/mL.

Staying with this assay, now noted: 1 nM PDHK1, 25 nM PDHE1, 20 μM ATP, 30° C. for 45 minutes; read-out: Enzymatic IC50 against PDHK1 (converted).
For `CCNc1cc(F)cc2c1NC(=O)[C@@]2(C)N1CCC[C@@H](Oc2ccc(C(=O)O)c(Cl)c2)C1` [Example 1B, 2-chloro-4-[[(3R)-1-[(3S)-7-(ethylamino)-5-fluoro-3-methyl-2-oxo-indolin-3-yl]-3-piperidyl]oxy]benzoic acid], the IC50 was 15.2 nM.

Take `CCNc1cc(F)cc2c1NC(=O)[C@@]2(C)N1CCC[C@@H](Oc2ccc(S(=O)(=O)F)c(OC)c2)C1` [Example 4B, 4-[[(3R)-1-[(3S)-7-(ethylamino)-5-fluoro-3-methyl-2-oxo-indolin-3-yl]-3-piperidyl]oxy]-2-methoxy-benzenesulfonyl fluoride]: the IC50 is 109 nM.

For `CCNc1cc(F)cc2c1NC(=O)C2(C)N1CCC[C@@H](Cc2ccc(C#N)cc2)C1` (stereo partly drawn) [Example 7, 4-[[(3S)-1-[7-(ethylamino)-5-fluoro-3-methyl-2-oxo-indolin-3-yl]-3-piperidyl]methyl]benzonitrile], the IC50 is 379 nM.

Usually IC50 stands for the concentration at which inhibition is half-maximal.

For the origin of these results see patent US20240140933A1, “OXOINDOLINE COMPOUND FOR THE TREATMENT OF INFLAMMATORY DISEASES OR CANCER” (Hoffmann-La Roche Inc., priority 2021, published 2024).
